Data published in patent publication US9707233B2, “Heterocyclylamines as PI3K inhibitors” (Incyte Corporation, priority 2011, dated 2017).

What follows are compounds tested against PI3Kδ (p110δ/p85α) (Homo sapiens (Human), UniProt O00329) (assay: PI3Kδ scintillation proximity assay (Example A3)). Details: 20 μM ATP, 20 μM PIP2, 4 nM PI3Kδ; read-out: PI3Kδ SPA IC50.
Type: biochemical
Procedure: [γ-^33P]ATP (10 mCi/mL) was purchased from Perkin-Elmer (Waltham, Mass.). […] PI3Kδ (p110δ/p85α) was purchased from Millipore (Bedford, Mass.). ATP, MgCl2, DTT, EDTA, MOPS and CHAPS were purchased from Sigma-Aldrich (St. Louis, Mo.). Wheat Germ Agglutinin (WGA) YSi SPA Scintillation Beads was purchased from GE healthcare life sciences (Piscataway, N.J.).
The kinase reaction was conducted in polystyrene 384-well matrix white plate from Thermo Fisher Scientific in a final volume of 25 μL. Inhibitors were first diluted serially in DMSO and added to the plate wells before the addition of other reaction components. The final concentration of DMSO in the assay was 0.5%. The PI3K assays were carried out at room temperature in 20 mM MOPS, pH 6.7, 10 mM MgCl2, 5 mM DTT and CHAPS 0.03%. Reactions were initiated by the addition of ATP, the final reaction mixture consisted of 20 μM PIP2, 20 μM ATP, 0.2 μCi [γ-^33P]ATP, 4 nM PI3Kδ. […] 25 mM EDTA, 400 μM ATP. The final concentration of SPA beads was 1.0 mg/mL. After the plate sealing, plates were shaken overnight at room temperature and centrifuged at 1800 rpm for 10 minutes, the radioactivity of the product was determined by scintillation counting on Topcount (Perkin-Elmer). IC50 determination was performed by fitting the curve of percent control activity versus the log of the inhibitor concentration using the GraphPad Prism 3.0 software.

Sequence of PI3Kδ (p110δ/p85α) (O00329 whole entry): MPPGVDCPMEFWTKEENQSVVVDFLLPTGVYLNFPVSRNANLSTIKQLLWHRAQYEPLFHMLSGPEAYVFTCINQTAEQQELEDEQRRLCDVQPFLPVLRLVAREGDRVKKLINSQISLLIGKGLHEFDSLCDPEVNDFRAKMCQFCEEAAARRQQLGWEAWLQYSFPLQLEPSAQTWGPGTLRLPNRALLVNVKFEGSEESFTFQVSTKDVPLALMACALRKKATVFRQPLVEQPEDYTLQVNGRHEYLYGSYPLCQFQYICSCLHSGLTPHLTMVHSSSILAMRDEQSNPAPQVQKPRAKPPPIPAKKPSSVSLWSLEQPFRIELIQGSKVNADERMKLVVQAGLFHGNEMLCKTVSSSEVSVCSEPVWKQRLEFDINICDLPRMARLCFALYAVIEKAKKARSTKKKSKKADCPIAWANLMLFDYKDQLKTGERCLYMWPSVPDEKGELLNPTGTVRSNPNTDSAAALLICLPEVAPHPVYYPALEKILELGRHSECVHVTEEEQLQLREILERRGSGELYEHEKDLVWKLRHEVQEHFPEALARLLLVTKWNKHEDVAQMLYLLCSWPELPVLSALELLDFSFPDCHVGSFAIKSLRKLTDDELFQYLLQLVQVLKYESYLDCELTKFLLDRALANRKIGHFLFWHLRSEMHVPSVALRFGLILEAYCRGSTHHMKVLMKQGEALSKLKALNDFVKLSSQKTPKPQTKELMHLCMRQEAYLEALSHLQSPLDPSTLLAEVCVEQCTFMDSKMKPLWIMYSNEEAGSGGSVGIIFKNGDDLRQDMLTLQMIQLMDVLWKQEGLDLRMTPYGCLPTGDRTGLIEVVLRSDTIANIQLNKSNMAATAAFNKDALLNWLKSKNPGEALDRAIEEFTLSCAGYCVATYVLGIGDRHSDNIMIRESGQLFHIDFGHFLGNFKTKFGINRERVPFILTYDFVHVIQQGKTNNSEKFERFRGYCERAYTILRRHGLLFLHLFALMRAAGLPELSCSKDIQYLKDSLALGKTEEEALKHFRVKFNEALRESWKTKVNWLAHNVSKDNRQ
Sequence of PI3Kδ (p110δ/p85α) (P27986 whole entry partner): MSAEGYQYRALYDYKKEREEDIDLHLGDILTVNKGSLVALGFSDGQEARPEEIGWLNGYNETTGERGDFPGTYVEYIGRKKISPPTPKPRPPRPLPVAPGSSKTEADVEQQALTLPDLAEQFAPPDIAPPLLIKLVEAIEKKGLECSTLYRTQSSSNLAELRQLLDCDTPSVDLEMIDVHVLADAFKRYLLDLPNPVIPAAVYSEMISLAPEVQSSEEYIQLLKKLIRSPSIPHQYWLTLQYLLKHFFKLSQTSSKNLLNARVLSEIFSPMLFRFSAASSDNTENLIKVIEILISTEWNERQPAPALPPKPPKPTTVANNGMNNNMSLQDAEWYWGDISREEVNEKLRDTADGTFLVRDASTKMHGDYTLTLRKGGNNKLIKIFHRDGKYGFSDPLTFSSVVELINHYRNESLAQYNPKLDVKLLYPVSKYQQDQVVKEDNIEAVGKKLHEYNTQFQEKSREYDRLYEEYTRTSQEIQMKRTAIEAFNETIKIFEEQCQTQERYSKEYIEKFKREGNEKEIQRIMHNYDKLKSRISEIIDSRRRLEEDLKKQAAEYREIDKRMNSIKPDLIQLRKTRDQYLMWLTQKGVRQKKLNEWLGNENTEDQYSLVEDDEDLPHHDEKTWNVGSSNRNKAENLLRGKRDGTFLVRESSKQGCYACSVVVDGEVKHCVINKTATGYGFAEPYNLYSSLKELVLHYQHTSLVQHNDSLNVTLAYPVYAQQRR

IC50 | Compound
≤ 0.01 µM | COc1c(C(C)n2nc(C)c3c(N)ncnc32)cc(Cl)c(C)c1C1CN(CC2CC2)C1 (racemic) [Example 4, 1-(1-{5-Chloro-3-[1-(cyclopropylmethyl)azetidin-3-yl]-2-methoxy-4-methylphenyl}ethyl)-3-methyl-1H-pyrazolo[3,4-d]pyrimidin-4-amine bis(trifluoroacetate)]
≤ 0.01 µM | COc1c(C(C)n2nc(C)c3c(N)ncnc32)cc(Cl)c(C)c1-c1ccnc(C(=O)N(C)CCO)c1 (racemic) [Example 19, 4-{3-[1-(4-amino-3-methyl-1H-pyrazolo[3,4-d]pyrimidin-1-yl)ethyl]-5-chloro-2-methoxy-6-methylphenyl}-N-(2-hydroxyethyl)-N-methylpyridine-2-carboxamide]
≤ 0.01 µM | COc1c(C(C)n2ccc(=O)c3c(N)ncnc32)cc(Cl)c(C)c1-c1cncc(S(C)(=O)=O)c1 (racemic) [Example 26, 4-Amino-8-(1-{5-chloro-2-methoxy-4-methyl-3-[5-(methylsulfonyl)pyridin-3-yl]phenyl}ethyl)pyrido[2,3-d]pyrimidin-5(8H)-one bis(trifluoroacetate)]
≤ 0.01 µM | COc1c(C(C)n2ccc(=O)c3c(N)ncnc32)cc(Cl)c(C)c1-c1cncc(C#N)c1 (racemic) [Example 27, 5-{3-[1-(4-Amino-5-oxopyrido[2,3-d]pyrimidin-8(5H)-yl)ethyl]-5-chloro-2-methoxy-6-methylphenyl}nicotinonitrile bis(trifluoroacetate)]
≤ 0.01 µM | COc1c(C(C)n2ccc(=O)c3c(N)ncnc32)cc(Cl)c(C)c1-c1cncnc1 (racemic) [Example 29, 4-Amino-8-[1-(5-chloro-2-methoxy-4-methyl-3-pyrimidin-5-ylphenyl)ethyl]pyrido[2,3-d]pyrimidin-5(8H)-one bis(trifluoroacetate)]
≤ 0.01 µM | COc1c(C(C)n2ccc(=O)c3c(N)ncnc32)cc(Cl)c(C)c1-c1cccc(C(=O)N(C)C)c1 (racemic) [Example 30, 3′-[1-(4-Amino-5-oxopyrido[2,3-d]pyrimidin-8(5H)-yl)ethyl]-5′-chloro-2′-methoxy-N,N,6′-trimethylbiphenyl-3-carboxamide bis(trifluoroacetate)]
≤ 0.01 µM | COc1c(C(C)n2ccc(=O)c3c(N)ncnc32)cc(Cl)c(C)c1-c1cncc(F)c1 (racemic) [Example 31, 4-Amino-8-{1-[5-chloro-3-(5-fluoropyridin-3-yl)-2-methoxy-4-methylphenyl]ethyl}pyrido[2,3-d]pyrimidin-5(8H)-one bis(trifluoroacetate)]
≤ 0.01 µM | COc1c(C(C)n2ccc(=O)c3c(N)ncnc32)cc(Cl)c(C)c1-c1cccc(S(=O)(=O)N(C)C)c1 (racemic) [Example 32, 3′-[1-(4-Amino-5-oxopyrido[2,3-d]pyrimidin-8(5H)-yl)ethyl]-5′-chloro-2′-methoxy-N,N,6′-trimethylbiphenyl-3-sulfonamide bis(trifluoroacetate)]
≤ 0.01 µM | CNC(=O)c1ccc(-c2c(C)c(Cl)cc(C(C)n3ccc(=O)c4c(N)ncnc43)c2OC)cn1 (racemic) [Example 33, 5-{3-[1-(4-amino-5-oxopyrido[2,3-d]pyrimidin-8(5H)-yl)ethyl]-5-chloro-2-methoxy-6-methylphenyl}-N-methylpyridine-2-carboxamide bis(trifluoroacetate)]
≤ 0.01 µM | CCOc1c(C(C)n2ccc(=O)c3c(N)ncnc32)cc(Cl)c(C)c1C1CN(C(C)C)C1 (racemic) [Example 35, 4-Amino-8-{1-[5-chloro-2-ethoxy-3-(1-isopropylazetidin-3-yl)-4-methylphenyl]ethyl}pyrido[2,3-d]pyrimidin-5(8H)-one bis(trifluoroacetate)]
0.01 to 0.05 µM | COc1c(C(C)n2ncc3c(N)ncnc32)cc(Cl)c(C)c1-c1ccnc(C(=O)N(C)C)c1 (racemic) [Example 38, 4-{3-[1-(4-amino-1H-pyrazolo[3,4-d]pyrimidin-1-yl)ethyl]-5-chloro-2-methoxy-6-methylphenyl}-N,N-dimethylpyridine-2-carboxamide]
0.05 to 0.2 µM | COc1c(C(C)n2ncc3c(N)ncnc32)cc(Cl)c(C)c1-c1ccnc(C(=O)NCCO)c1 (racemic) [Example 39, 4-{3-[1-(4-amino-1H-pyrazolo[3,4-d]pyrimidin-1-yl)ethyl]-5-chloro-2-methoxy-6-methylphenyl}-N-(2-hydroxyethyl)pyridine-2-carboxamide]
0.01 to 0.05 µM | COc1c(C(C)n2nc(C)c3c(N)ncnc32)cc(C#N)c(C)c1-c1ccnc(C(=O)N(C)CCO)c1 (racemic) [Example 40, 4-{3-[1-(4-amino-3-methyl-1H-pyrazolo[3,4-d]pyrimidin-1-yl)ethyl]-5-cyano-2-methoxy-6-methylphenyl}-N-(2-hydroxyethyl)-N-methylpyridine-2-carboxamide]
≤ 0.01 µM | CCOc1c(C(C)n2nc(-c3cccc(F)c3)c3c(N)ncnc32)cc(Cl)c(C)c1-c1ccc(C(=O)N(C)C)nc1 (racemic) [Example 47, 5-(3-{1-[4-amino-3-(3-fluorophenyl)-1H-pyrazolo[3,4-d]pyrimidin-1-yl]ethyl}-5-chloro-2-ethoxy-6-methylphenyl)-N,N-dimethylpyridine-2-carboxamide bis(trifluoroacetate)]
≤ 0.01 µM | CCOc1c(C(C)n2nc(-c3cn[nH]c3)c3c(N)ncnc32)cc(Cl)c(C)c1-c1ccc(C(=O)N(C)C)nc1 (racemic) [Example 48, 5-(3-{1-[4-amino-3-(1H-pyrazol-4-yl)-1H-pyrazolo[3,4-d]pyrimidin-1-yl]ethyl}-5-chloro-2-ethoxy-6-methylphenyl)-N,N-dimethylpyridine-2-carboxamide bis(trifluoroacetate)]
≤ 0.01 µM | CCOc1c(C(C)n2nc(-c3cnn(C)c3)c3c(N)ncnc32)cc(Cl)c(C)c1-c1ccc(C(=O)N(C)C)nc1 (racemic) [Example 49, 5-(3-{1-[4-amino-3-(1-methyl-1H-pyrazol-4-yl)-1H-pyrazolo[3,4-d]pyrimidin-1-yl]ethyl}-5-chloro-2-ethoxy-6-methylphenyl)-N,N-dimethylpyridine-2-carboxamide bis(trifluoroacetate)]
≤ 0.01 µM | CCOc1c(C(C)n2nc(-c3cc[nH]n3)c3c(N)ncnc32)cc(Cl)c(C)c1-c1ccc(C(=O)N(C)C)nc1 (racemic) [Example 51, 5-(3-{1-[4-amino-3-(1H-pyrazol-3-yl)-1H-pyrazolo[3,4-d]pyrimidin-1-yl]ethyl}-5-chloro-2-ethoxy-6-methylphenyl)-N,N-dimethylpyridine-2-carboxamide bis(trifluoroacetate)]
≤ 0.01 µM | CCOc1c(C(C)n2nc(C3CC3)c3c(N)ncnc32)cc(Cl)c(C)c1-c1ccc(C(=O)N(C)C)nc1 (racemic) [Example 53, 5-{3-[1-(4-amino-3-cyclopropyl-1H-pyrazolo[3,4-d]pyrimidin-1-yl)ethyl]-5-chloro-2-ethoxy-6-methylphenyl}-N,N-dimethylpyridine-2-carboxamide bis(trifluoroacetate)]
0.01 to 0.05 µM | CCOc1c(C(C)n2nc(C#N)c3c(N)ncnc32)cc(Cl)c(C)c1-c1ccc(C(=O)N(C)C)nc1 (racemic) [Example 54, 5-{3-[1-(4-amino-3-cyano-1H-pyrazolo[3,4-d]pyrimidin-1-yl)ethyl]-5-chloro-2-ethoxy-6-methylphenyl}-N,N-dimethylpyridine-2-carboxamide]
0.01 to 0.05 µM | CCOc1c(C(C)n2nc(-c3ccc(F)cc3)c3c(N)ncnc32)cc(Cl)c(C)c1-c1ccc(C(=O)N(C)C)nc1 (racemic) [Example 55, 5-(3-{1-[4-amino-3-(4-fluorophenyl)-1H-pyrazolo[3,4-d]pyrimidin-1-yl]ethyl}-5-chloro-2-ethoxy-6-methylphenyl)-N,N-dimethylpyridine-2-carboxamide bis(trifluoroacetate)]
0.01 to 0.05 µM | CCOc1c(C(C)n2nc(-c3ccc(C(=O)N(C)C)nc3)c3c(N)ncnc32)cc(Cl)c(C)c1-c1ccc(C(=O)N(C)C)nc1 (racemic) [Example 56, 5-{4-amino-1-[1-(5-chloro-3-{6-[(dimethylamino)carbonyl]pyridin-3-yl}-2-ethoxy-4-methylphenyl)ethyl]-1H-pyrazolo[3,4-d]pyrimidin-3-yl}-N,N-dimethylpyridine-2-carboxamide tris(trifluoroacetate)]
≤ 0.01 µM | CCOc1c(C(C)n2nc(-c3cnc(N)nc3)c3c(N)ncnc32)cc(Cl)c(C)c1-c1ccc(C(=O)N(C)C)nc1 (racemic) [Example 58, 5-(3-{1-[4-amino-3-(2-aminopyrimidin-5-yl)-1H-pyrazolo[3,4-d]pyrimidin-1-yl]ethyl}-5-chloro-2-ethoxy-6-methylphenyl)-N,N-dimethylpyridine-2-carboxamide tris(trifluoroacetate)]

Compound | IC50
2-(4-(3-(1-(4-Amino-3-methyl-1H-pyrazolo[3,4-d]pyrimidin-1-yl)ethyl)-5-chloro-2-ethoxy-6-methylphenyl)-1H-pyrazol-1-yl) acetamide [Example 203] | ≤ 0.01 µM
COc1c(C(C)n2nc(C)c3c(N)nccc32)cc(Cl)c(C)c1-c1ccc(C(=O)N(C)C)nc1 (racemic) [Example 41, 5-{3-[1-(4-Amino-3-methyl-1H-pyrazolo[4,3-c]pyridin-1-yl)ethyl]-5-chloro-2-methoxy-6-methylphenyl}-N,N-dimethylpyridine-2-carboxamide bis(trifluoroacetate)] | 0.05 to 0.2 µM
